This is an account of results in patent US20100316579A1, “NOVEL USE OF ALKYL PHOSPHATE ESTERS” (Glaxo Group Limited, priority 2006, published 2010).

The nature of experiment [1]: Inhibition of citric acid-mediated enamel surface softening (Vickers microhardness/microindentation). Also noted: species or system human. The following applies: Example 1; for enamel surface microhardness (baseline = 100): ± = standard deviation; for levels of protection compared among SDP, PDEP and fluoride positive control: at 10 and 20 minutes; for levels of protection compared among SDP, PDEP and fluoride positive control / protection versus the fluoride positive control: in words; for protection versus the fluoride positive control: at 30 minutes. As to the method:
The first stage of dental erosion and acid wear involves demineralisation of the hard tissue surface and consequent surface softening. The present study employed a Duramin Microhardness Tester to assess the protective effect of SDP and PDEP against an erosive challenge based on citric acid.
Sound human enamel specimens were polished with 2400 grit abrasive and subsequently immersed in an aqueous solution of the specified treatment at pH 7 for 2 minutes under ambient conditions, with agitation. After rinsing with deionised water, the enamel specimens were exposed to an erosive challenge comprising an aqueous solution of 0.30% w/w citric acid monohydrate, pH 3.6. The extent of acid damage was assessed by monitoring the decrease in enamel surface hardness as a function of acid exposure time. The microhardness value for each specimen at a given time point was based on the mean of 6 indents. Each treatment leg employed 3 enamel specimens, which were randomised according to baseline microhardness. A 300 ppm fluoride ion solution (from NaF) was employed as the positive control; deionised water was employed as the negative control. The protective effects of combination treatment solutions i.e. 0.50% alkyl phosphate plus 300 ppm fluoride, were also investigated.
The actives were tested as aqueous solutions at 0.50% w/w and pH 7.

Experiment [2] is described as follows: Enamel solubility reduction (FDA ESR model #33 modified), phosphoric acid challenge. An excerpt: (§1) FDA caries monograph enamel solubility reduction (ESR) model #33 is designed to evaluate in vitro the utility of fluoride toothpastes to protect enamel against a bacterial (lactic) acid challenge. In brief, enamel specimens are placed in a lactic acid challenge (pH 4.5) and the solubility determined by spectrophotometric analysis of released phosphate. Specimens are then placed in the relevant treatment solution derived from the supernatant of a 1:3 slurry of the toothpaste in deionised water. After 5 minutes the specimens are removed, rinsed, and placed in a fresh lactic acid challenge. The enamel solubility is determined once again, and the ESR value calculated as a percentage reduction relative to the baseline solubility.
FDA ESR Model #33 was modified by replacing lactic acid with phosphoric acid, a dietary acid most commonly associated with cola drinks. Determination of enamel solubility in this study was based on analysis of the released calcium to prevent interference from the acid challenge.

The nature of experiment [3]: Enamel solubility reduction (FDA ESR model #33 modified), citric acid challenge. The settings on record: for Enamel Solubility Reduction (%): 1.0% w/w citric acid monohydrate pH 3.75, alkyl phosphates 0.50% w/w aqueous, pH 7, normalised to water negative control.
From the text: as §1
The methodology described above was modified in order to evaluate the ability of putative anti-erosion actives to confer protection against a more aggressive dietary acid challenge. […] The alkyl phosphates were tested as 0.50% w/w aqueous solutions at pH 7. Fluoride was included as a positive control, and Crest Cavity Protection was also run as an additional control standard.

Where [4] appears, read: 10 mins acid (0.30% w/w citric acid monohydrate, pH 3.6) after 2 min treatment at pH 7.
Where [5] appears, read: 20 mins acid (0.30% w/w citric acid monohydrate, pH 3.6) after 2 min treatment at pH 7.
Where [6] appears, read: 30 mins acid (0.30% w/w citric acid monohydrate, pH 3.6) after 2 min treatment at pH 7.

With `CCCCCCCCCCCCOP(=O)([O-])[O-].[Na+].[Na+]` [SDP, sodium dodecyl phosphate], the “enamel surface microhardness (baseline = 100)” value is 94 ± 1.7 in experiment [1] (setting [4]), 84 ± 4.0 in experiment [1] (setting [5]) and 80 ± 2.0 in experiment [1] (setting [6]). Besides, in experiment [1], the “levels of protection compared among SDP, PDEP and fluoride positive control” value is recorded as “comparable”. In addition, in experiment [1], the “protection versus the fluoride positive control” value is listed as “statistically superior”. Besides, the “protection against the phosphoric acid challenge compared to the negative water control” value in experiment [2] (in words) is recorded as “statistically significant protection”. The “acid protection versus the 300 ppm fluoride” value in experiment [2] (phosphoric acid ESR, in words) is on record as “statistically superior”. The “Enamel Solubility Reduction (%)” value was determined as 16.02% in experiment [2] (phosphoric acid challenge, solubility from released calcium) and 36.76% in experiment [3]. Also, the “directional comparison with fluoride” value in experiment [3] (citric acid ESR, in words) is given as “directionally superior”. Moreover, the “statistical comparison with the 300 ppm fluoride control” value in experiment [3] (citric acid ESR, in words) is “not statistically different”.
For the compound “potassium dodecyl ether (1EO) phosphate [PDEP]”, the results for the “enamel surface microhardness (baseline = 100)” value in experiment [1] (setting [4]), in experiment [1] (setting [5]) and in experiment [1] (setting [6]) were 92.5 ± 1.8, 82.5 ± 2.7 and 78 ± 2.8, respectively. Besides, the “levels of protection compared among SDP, PDEP and fluoride positive control” value in experiment [1] is “comparable”. Further, in experiment [1], the “protection versus the fluoride positive control” value is listed as “statistically superior”. Also, in experiment [3], the “Enamel Solubility Reduction (%)” value was found to be 17.77%. Further, the “statistical comparison with the 300 ppm fluoride control” value in experiment [3] (citric acid ESR, in words) is given as “statistically inferior”.
